Values after ≈ are worked out from the molar mass of the structure shown.
Columns and labels:
[1] = Antioxidant activity assessed as superoxide radical scavenging activity at 300 ug/mL by NBT reduction assay; format: functional
[2] = test system: MOLT-3; experiment: Cytotoxicity against Homo sapiens (human) MOLT3 cells after 3 days by crystal violet staining; format: functional, cell-based; details: MOLT-3, 72 h
[3] = Cytotoxicity against Homo sapiens (human) HuCCa1 cells after 3 days by crystal violet staining; format: functional, cell-based, HuCC-A1
[4] = test system: Radical scavenging activity; experiment: Antioxidant activity assessed as DPPH radical scavenging activity at 300 ug/mL after 30 min; format: functional
[5] = test system: HepG2; experiment: Cytotoxicity against Homo sapiens (human) HepG2 cells after 3 days by MTT assay; format: functional, cell-based
[6] = test system: A549; experiment: Cytotoxicity against Homo sapiens (human) A549 cells after 3 days by MTT assay; format: functional, cell-based
[7] = Homo sapiens, HuCC-A1, 72 h, read-out: IC50
[8] = Homo sapiens, A549, 72 h, read-out: IC50
[9] = Homo sapiens, HepG2, 72 h, read-out: IC50

Structure (SMILES)	Activity [1]	IC50 [2]	IC50 [3, 7]	Activity [4]	IC50 ([5]; hepg2)	IC50 [6, 8]	IC50 [5, 9]	IC50 ([3]; hucc-a1)	IC50 ([6]; a549)
c1ccc(-c2cc(SC34CC5CC(CC(C5)C3)C4)ccn2)cc1 [4-(1-ADAMANTYLTHIO)-2-PHENYLPYRIDINE]	32.1%	28.6 µg/mL (≈ 88.8 µM)	49 µg/mL (≈ 152 µM)	30.2%	Not Active	38 µg/mL (≈ 118 µM)	–	–	–
c1ccc(-c2cccnc2SC23CC4CC(CC(C4)C2)C3)cc1	26.7%	–	–	11.1%	–	–	–	–	–
COc1cc([C@@H]2c3cc4c(cc3[C@@H](O[C@@H]3O[C@@H]5CO[C@@H](C)O[C@H]5[C@H](O)[C@H]3O)[C@H]3COC(=O)[C@H]23)OCO4)cc(OC)c1O [ETOPOSIDE]	–	0.019 µg/mL (≈ 0.0323 µM)	–	–	–	–	12 µg/mL (≈ 20.4 µM)	–	–
Cc1cccnc1SC12CC3CC(CC(C3)C1)C2	10.8%	33.3 µg/mL (≈ 128 µM)	–	19.6%	–	–	30 µg/mL (≈ 116 µM)	Not Active	Not Active
Cc1cncc(SC23CC4CC(CC(C4)C2)C3)c1 [5-(1-ADAMANTYLTHIO)-3-PICOLINE]	36.9%	15.8 µg/mL (≈ 61.1 µM)	34 µg/mL (≈ 131 µM)	7.96%	–	29 µg/mL (≈ 112 µM)	26.5 µg/mL (≈ 102 µM)	–	–
c1ccc(-c2cccc(SC34CC5CC(CC(C5)C3)C4)n2)cc1 [6-(1-ADAMANTYLTHIO)-2-PHENYLPYRIDINE]	25.9%	32.2 µg/mL (≈ 100 µM)	–	7.37%	–	44 µg/mL (≈ 137 µM)	48.5 µg/mL (≈ 151 µM)	Not Active	–
c1ccc(-c2ccncc2SC23CC4CC(CC(C4)C2)C3)cc1 [3-(1-ADAMANTYLTHIO)-4-PHENYLPYRIDINE]	37.5%	8.02 µg/mL (≈ 24.9 µM)	29 µg/mL (≈ 90.2 µM)	12.2%	–	24 µg/mL (≈ 74.7 µM)	21.5 µg/mL (≈ 66.9 µM)	–	–
c1ccc(-c2ccnc(SC34CC5CC(CC(C5)C3)C4)c2)cc1	32%	31.1 µg/mL (≈ 96.7 µM)	–	6.95%	–	–	46.5 µg/mL (≈ 145 µM)	Not Active	Not Active
c1ccc(-c2ccc(SC34CC5CC(CC(C5)C3)C4)cn2)cc1	31.6%	–	–	8.77%	–	–	–	–	–
Cc1ccc(SC23CC4CC(CC(C4)C2)C3)nc1 [6-(1-ADAMANTYLTHIO)-3-PICOLINE]	28.6%	27.2 µg/mL (≈ 105 µM)	–	7.69%	Not Active	–	–	Not Active	Not Active
c1ccc(-c2ccc(SC34CC5CC(CC(C5)C3)C4)nc2)cc1 [6-(1-ADAMANTYLTHIO)-3-PHENYLPYRIDINE]	18%	32.5 µg/mL (≈ 101 µM)	–	10.6%	Not Active	44 µg/mL (≈ 137 µM)	–	Not Active	–
COc1cccc2c1C(=O)c1c(O)c3c(c(O)c1C2=O)C[C@@](O)(C(=O)CO)C[C@@H]3O[C@H]1C[C@H](N)[C@H](O)[C@H](C)O1 [DOXORUBICIN]	–	–	0.45 µg/mL (≈ 0.828 µM)	–	–	0.39 µg/mL (≈ 0.718 µM)	0.23 µg/mL (≈ 0.423 µM)	–	–
